Source: ChEMBL document CHEMBL1141167, “Antitumor activity of new substituted 3-(5-imidazo[2,1-b]thiazolylmethylene)-2-indolinones and study of their effect on the cell cycle” (2005)
Values joined by “and” are separate entries in the source; they are usually repeats but may differ in a detail not shown here. Identical values can stand only once.

Tests used:
[1] = system: CNS cell; experiment: Growth inhibitory concentration dissolved in DMSO against human CNS cell line at 10E-4 M concentration; assay type: functional
[2] = system: Colon cell; experiment: Total growth inhibition of human Colon cell line at 10E-4 M concentration; assay type: functional; set-up: unit not given here
[3] = system: NSCLC; experiment: Total growth inhibition of human NSCLC cell line at 10E-4 M concentration; assay type: functional
[4] = system: Breast carcinoma cell; experiment: Total growth inhibition of human Breast cell line at 10E-4 M concentration; assay type: functional
[5] = system: Panel NCI-60 (60 carcinoma cell lines); experiment: Total growth inhibition of human MG-MID cell line at 10E-4 M concentration; assay type: functional
[6] = system: Ovarian carcinoma cell; experiment: Total growth inhibition of human Ovarian cell line at 10E-4 M concentration; assay type: functional
[7] = system: Melanoma cell; experiment: Total growth inhibition of human Melanoma cell line at 10E-4 M concentration; assay type: functional
[8] = system: Prostate cell; experiment: Total growth inhibition of human Prostate cell line at 10E-4 M concentration; assay type: functional
[9] = system: Prostate cell; experiment: Growth inhibitory concentration dissolved in DMSO against human Prostate cell line at 10E-4 M concentration; assay type: functional
[10] = system: Ovarian carcinoma cell; experiment: Growth inhibitory concentration dissolved in DMSO against human Ovarian cell line at 10E-4 M concentration; assay type: functional
[11] = system: Melanoma cell; experiment: Growth inhibitory concentration dissolved in DMSO against human Melanoma cell line at 10E-4 M concentration; assay type: functional
[12] = system: Colon cell; experiment: Growth inhibitory concentration dissolved in DMSO against human Colon cell line at 10E-4 M concentration; assay type: functional
[13] = system: NSCLC; experiment: Growth inhibitory concentration dissolved in DMSO against human NSCLC cell line at 10E-4 M concentration; assay type: functional; set-up: unit not given here
[14] = system: Renal cell; experiment: Growth inhibitory concentration dissolved in DMSO against human Renal cell line at 10E-4 M concentration; assay type: functional; set-up: unit not given here
[15] = system: Breast carcinoma cell; experiment: Growth inhibitory concentration dissolved in DMSO against human Breast cell line at 10E-4 M concentration; assay type: functional
[16] = system: Panel NCI-60 (60 carcinoma cell lines); experiment: Growth inhibitory concentration dissolved in DMSO against human MG-MID cell line at 10E-4 M concentration; assay type: functional
[17] = system: Colon cell; experiment: Cytotoxic effect dissolved in DMSO against Colon cell line at 10E-4 M concentration; assay type: functional, Homo sapiens
[18] = system: Breast carcinoma cell; experiment: Cytotoxic effect dissolved in DMSO against Breast cell line at 10E-4 M concentration; assay type: functional, Homo sapiens
[19] = system: Panel NCI-60 (60 carcinoma cell lines); experiment: Cytotoxic effect dissolved in DMSO against MG-MID cell line at 10E-4 M concentration; assay type: functional, Homo sapiens
[20] = system: Ovarian carcinoma cell; experiment: Cytotoxic effect dissolved in DMSO against Ovarian cell line at 10E-4 M concentration; assay type: functional, Homo sapiens
[21] = system: Melanoma cell; experiment: Cytotoxic effect dissolved in DMSO against Melanoma cell line at 10E-4 M concentration; assay type: functional, Homo sapiens

| Structure (SMILES) | pGI50 (-log GI50, M) [1] | pGI50 (negative log molar GI50) [9] | pGI50 (negative log of GI50 in M) [10] | pGI50 (-log molar GI50) [11] | pGI50 (negative log of molar GI50) [12] | GI50 [13] | GI50 [14] | pGI50 (-log GI50, M) [15] | GI50 [16] | also measured |
| --- | --- | --- | --- | --- | --- | --- | --- | --- | --- | --- |
| COc1ccc2c(c1)/C(=C\c1c(C)nc3sc(C)cn13)C(=O)N2C | 5.46 | 5.06 | 5.16 | 5.26 | 5.49 | 5.11 | 5.32 | 5.6 | 5.35 | TGI [2]: 4.55 and 4.59; TGI [3]: 4.4; TGI [4]: 4.87; TGI [5]: 4.46; TGI [6]: 4.42; TGI [7]: 4.45; TGI [8]: 4.1; LC50 [17]: 4.09; LC50 [18]: 4.03; LC50 [19]: 4.03; LC50 [20]: 4.02; LC50 [21]: 4.13 |
| COc1cc2c(cc1C)NC(=O)/C2=C/c1c(C)nc2sc(C)cn12 | 4.08 | 4.23 | 4.12 | 4.22 | 4.21 | 4.24 | 4.09 | 4.33 | 4.22 | – |
